Literature values in PMC10694761 (Cell Reports Medicine, 2023).

What was measured:
[1] = micromolar concentrations
[2] = rats
[3] = humans

self-association state [1]: heptameric structures | half-life of absorption from the s.c. space (t1/2, s.c.) [2]: ~9.6 min | half-life of elimination from the systemic circulation (t1/2, serum) [2]: ~4.01 h | t1/2, serum [3]: ~13 h
Substance: Liraglutide
